This note sets out measurements from patent US20210046160A1 (Synthorx, Inc., priority 2019, published 2021).

Several values for one entry are separate records, joined by “and”; a condition that tells them apart may be missing. Equal values may be shown once.

The test system of this data set is CT-26 colon tumors. The data set is described as follows: Efficacy in CT-26 tumor-bearing Balb/c mice, Studies 1-3 (tumor growth inhibition, survival). As to conditions: for median survival time: Compound A 6 mg/kg QWx3, anti-PD-1 antibody 10 mg/kg BIWx3, or both. Type of data set: in vivo. The text has this: Studies of Compound A as monotherapy and in combination with an anti-PD-1 antibody were undertaken in Balb/c female mice. […] Balb/c female mice, 7-8 weeks of age, with an average weight of 18 to 22 g were purchased from Taconic Biosciences by HD Biosciences for study 3. Cryogenically preserved vials of CT-26 colon cancer cells were purchased from American Tissue Type Collection (ATCC, Manassas, Va.). Cells were thawed and cultured according to the manufacturer's protocol. On the day of tumor cell inoculation, cells were washed in serum-free media, counted, and resuspended in cold serum-free media at a concentration of 250,000 (studies 1 and 2) or 300,000 (study 3) viable cells per 0.1 mL. The CT-26 cells (0.1 mL) were injected subcutaneously into the flanks of individual mice and tumors were allowed to grow.
For studies 1 and 2 in which a combination of Compound A and an anti-PD-1 antibody were used, the antibody used was anti-mouse PD-1 (BioXcell; RMP1-14) and the control antibody was IgG1 isotype antibody (BioXcell; catalog #BP0089, lot #2A3). For study 3 in which an anti-PD-1 antibody was used, the antibody used was anti-mouse PD-1 (BioXcell; catalog #BP0146, RMP1-14, lot #695318A1) and the control antibody was IgG1 isotype antibody (BioXcell; catalog #BP0089, lot #2A3).
Lyophilized Compound A was reconstituted into 10 mg/mL stock with 0.1 M acetic acid. It was then further diluted into working concentration with 1× phosphate buffered saline (PBS). The compound was reconstituted and diluted within an hour of dosing of animals and kept on ice until dosing. The lyophilized compound was stored at −80° C. before use. Vehicle was stored at 4° C.
Three separate efficacy studies were performed using CT-26 tumor-bearing Balb/c mice. The design for study 1, which evaluated Compound A for dose-dependent efficacy as a single agent, is outlined in Table 19. The designs for studies 2 and 3, which evaluated the efficacy of Compound A in combination with an anti-PD-1 antibody, are outlined in Table 20 and Table 21, respectively. The route of administration for Compound A was intravenous (IV). IV dosing in the mice was done via the tail vein. The antibody was administered intraperitoneally (IP). All agents were administered based on the individual body weight of each animal obtained immediately prior to each dosing. Details on the dosing regimen are described below.
In Study 1, CT-26 tumor-bearing mice were treated with vehicle IV once a week for a total of 3 doses (QWx3) or Compound A at 0.3, 1, or 3 mg/kg IV, either once a week for a total of three doses (QWx3), or once every 2 weeks for a total of 2 doses (Q2Wx2), starting on Day 4 following tumor cell inoculation when the average tumor volume was ˜80 mm^3.
In Study 2, CT-26 tumor-bearing mice were treated on Day 5 following tumor cell inoculation when the average tumor volume was ˜80 mm^3. Dosing was with vehicle IV QWx3+ IgG isotype control IP or Compound A at 3 or 6 mg/kg IV, on a QWx3 dosing schedule, or anti-PD-1 antibody at 10 mg/kg IP, or the combination of Compound A at 6 mg/kg IV QWx3+ anti-PD-1 antibody at 10 mg/kg IP. The IP dosing of the antibody in all cases was twice a week for 3 weeks with a total of 6 doses (BIWx3).
In Study 3, CT-26 tumor-bearing mice were treated on Day 7 following tumor cell inoculation when the average tumor volume was ˜70 mm3. Dosing was with vehicle IV QWx3+ IgG isotype control IP BIWx3; or Compound A at 1, 3, 6, or 9 mg/kg IV on a QWx3 dosing schedule, or anti-PD-1 antibody at 10 mg/kg IP BIWx3; or the combination of Compound A at 1, 3, or 6 mg/kg IV QWx3+ anti-PD-1 antibody at 10 mg/kg IP BIWx3.
Animals were observed daily for clinical signs.
Tumor growth was monitored using digital caliper measurements every 3 to 4 days until the end of the study. Tumor volume was calculated as Width^2×Length/2, where width is the smallest dimension and length is the largest. Raw tumor volume data are presented in the study reports. […]

“P65_30kD: SEQ ID NO: 25: IL-2 (SEQ ID NO: 4) with P65 replaced by AzK click-conjugated to methoxy linear 30 kDa PEG [Compound P65_30kD]”: the median survival time by setting is: (Study 2) 27 days; (Study 3) 35 days. Besides, under “Study 3, Compound A 3 mg/kg, anti-PD-1 antibody 10 mg/kg, or both, day printed as 'Compound A days'”, the animals surviving was 0 of 14 animals. Also, where the note is “Study 3, Compound A 6 mg/kg, anti-PD-1 antibody 10 mg/kg, or both, day printed as 'Compound A days'”, the animals surviving tumor-free was 0 of 14 animals. In addition, the “animals found dead following >15% body weight loss due to treatment” value (Study 3, Compound A 9 mg/kg IV QWx3) is 2 of the 14 animals. Besides, the “% TGI (Relative to Vehicle Control)” value was 20% (Study #1, Compound A 0.3 mg/kg IV Q2Wx2, Day 15); 19% (Study #1, Compound A 0.3 mg/kg IV QWx3, Day 15, listed as Compound A, 0.3 mg/kg); 27% (Study #1, Compound A 1 mg/kg IV Q2Wx2, Day 15); 31% (Study #1, Compound A 1 mg/kg IV QWx3, Day 15, listed as Compound A, 1 mg/kg); 45% (Study #1, Compound A 3 mg/kg IV Q2Wx2, Day 15, listed as Compound A, 3 mg/kg); 52% and 51* % (Study #1, Compound A 3 mg/kg IV QWx3, Day 15, listed as Compound A, 3 mg/kg). The “% TGI (Relative to Vehicle Control)” value is 56.3% and 56% (Study #2, Compound A 3 mg/kg IV QWx3, listed as Compound A, 3 mg/kg); 35.6% and 36* % (Study #2, Compound A 6 mg/kg IV QWx3, listed as Compound A, 6 mg/kg); 29.8% and 30% (Study #3, Compound A 1 mg/kg IV QWx3, listed as Compound A, 1 mg/kg); 58.8% and 59*** % (Study #3, Compound A 3 mg/kg IV QWx3, listed as Compound A, 3 mg/kg); 86.2% and 86*** % (Study #3, Compound A 6 mg/kg IV QWx3, listed as Compound A, 6 mg/kg); 84.8% and 85*** % (Study #3, Compound A 9 mg/kg IV QWx3, listed as Compound A, 9 mg/kg).
